Values of other authors, collected in US20160346171A1, “ORAL COMPOSITION AND CONFECTION” (TEIKYO UNIVERSITY, priority 2015, published 2016).
Where two headings read alike, the source gives them in different places.

How the values were obtained:
Candida [1] = details: mouse
Candida [2] = details: for concentration inhibiting in vitro Candida mycelial growth by 95%: each independently, JP 2013-40156 A

O=CC=Cc1ccccc1 [cinnamaldehyde]
tongue symptoms (Candida [1]; 19.5 mg/mL solution, three times (50 μL at a time) into the oral cavity, Taguchi Y. et al. 2011): ameliorated the tongue symptoms

CC(C)=CCCC(C)=CC=O [citral]
concentration inhibiting in vitro Candida mycelial growth by 95% (Candida [2]): at least 50 μg/mL

CCCCCCCCCC(=O)O [decanoic acid]
tongue symptoms (Candida [1]; 1% (=10 mg/mL) solution, three times (50 μL at a time), JP 2013-40156 A): ameliorated the tongue symptoms | concentration inhibiting in vitro Candida mycelial growth by 50% (Candida [2]; Inoue S. et al. 2012): ≥ 3.13 µg/mL | concentration inhibiting in vitro Candida mycelial growth by 95% (Candida [2]): at least 3.13 μg/mL

C=CCc1ccc(O)c(OC)c1 [eugenol]
concentration inhibiting in vitro Candida mycelial growth by 95% (Candida [2]): at least 200 μg/mL

CC(C)=CCC/C(C)=C/CO [geraniol]
concentration inhibiting in vitro Candida mycelial growth by 95% (Candida [2]): at least 25 μg/mL
